Where two headings read alike, the source gives them in different places.
Tests used:
Type in all cases: binding
[1] = biological target: T1, HeLa cell extract proteins (Homo sapiens, UniProt Q8N5P1)
T1 construct: endogenous in cells; host or cells: HeLa cell extract
T1 sequence (Q8N5P1 1-291): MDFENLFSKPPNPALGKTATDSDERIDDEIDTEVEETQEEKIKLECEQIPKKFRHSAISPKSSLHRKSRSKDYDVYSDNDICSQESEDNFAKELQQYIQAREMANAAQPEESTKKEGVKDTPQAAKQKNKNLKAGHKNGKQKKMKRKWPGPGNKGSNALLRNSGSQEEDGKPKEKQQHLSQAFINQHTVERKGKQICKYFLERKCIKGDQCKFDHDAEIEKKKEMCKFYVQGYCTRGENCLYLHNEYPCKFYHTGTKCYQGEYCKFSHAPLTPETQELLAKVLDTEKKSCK

[2] = biological target: T2, HeLa cell extract proteins (Homo sapiens, UniProt P14678)
T2 construct: endogenous in cells; host or cells: HeLa cell extract

[3] = biological target: T3, HeLa cell extract proteins (Homo sapiens, UniProt Q16531)
T3 construct: endogenous in cells; host or cells: HeLa cell extract
T3 sequence (Q16531 whole entry): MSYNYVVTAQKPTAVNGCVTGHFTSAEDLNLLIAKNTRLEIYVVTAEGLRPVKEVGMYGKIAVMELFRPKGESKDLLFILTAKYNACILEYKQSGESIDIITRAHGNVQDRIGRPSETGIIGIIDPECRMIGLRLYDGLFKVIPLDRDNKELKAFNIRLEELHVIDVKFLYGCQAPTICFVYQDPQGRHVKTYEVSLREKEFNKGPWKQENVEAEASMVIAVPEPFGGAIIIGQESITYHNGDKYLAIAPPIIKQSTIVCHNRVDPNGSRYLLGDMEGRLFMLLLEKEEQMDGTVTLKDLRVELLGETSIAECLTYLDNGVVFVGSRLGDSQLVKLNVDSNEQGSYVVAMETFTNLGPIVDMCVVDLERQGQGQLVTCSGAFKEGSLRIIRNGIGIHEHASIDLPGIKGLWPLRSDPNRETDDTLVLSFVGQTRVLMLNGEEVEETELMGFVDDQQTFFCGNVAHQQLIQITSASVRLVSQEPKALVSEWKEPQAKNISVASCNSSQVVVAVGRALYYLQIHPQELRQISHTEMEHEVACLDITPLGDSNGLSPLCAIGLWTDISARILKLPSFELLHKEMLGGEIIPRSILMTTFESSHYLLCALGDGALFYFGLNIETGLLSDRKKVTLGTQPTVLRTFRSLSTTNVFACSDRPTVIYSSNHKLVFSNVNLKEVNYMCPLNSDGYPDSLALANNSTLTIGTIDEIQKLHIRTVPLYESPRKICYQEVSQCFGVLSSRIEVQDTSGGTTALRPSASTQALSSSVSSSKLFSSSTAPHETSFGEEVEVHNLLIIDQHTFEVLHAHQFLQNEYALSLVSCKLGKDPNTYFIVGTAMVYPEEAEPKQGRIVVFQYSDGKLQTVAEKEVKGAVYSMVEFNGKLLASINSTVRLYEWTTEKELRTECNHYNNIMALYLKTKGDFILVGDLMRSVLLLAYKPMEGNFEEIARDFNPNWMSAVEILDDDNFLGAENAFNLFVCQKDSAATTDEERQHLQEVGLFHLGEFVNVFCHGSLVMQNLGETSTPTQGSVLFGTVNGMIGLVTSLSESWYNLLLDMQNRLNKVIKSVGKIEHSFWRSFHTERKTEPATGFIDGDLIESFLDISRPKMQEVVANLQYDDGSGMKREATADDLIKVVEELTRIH

[4] = biological target: T4, HeLa cell extract proteins (Homo sapiens, UniProt P63104)
T4 construct: endogenous in cells; host or cells: HeLa cell extract
T4 sequence (P63104 1-245): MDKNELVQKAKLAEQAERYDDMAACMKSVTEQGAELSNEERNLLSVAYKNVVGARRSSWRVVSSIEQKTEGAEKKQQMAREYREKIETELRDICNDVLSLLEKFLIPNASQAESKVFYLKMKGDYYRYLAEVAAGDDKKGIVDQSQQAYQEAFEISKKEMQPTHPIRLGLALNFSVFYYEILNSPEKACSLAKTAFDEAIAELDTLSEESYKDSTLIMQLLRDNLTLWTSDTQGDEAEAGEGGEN

[5] = biological target: T5, HeLa cell extract proteins (Homo sapiens, UniProt P09497)
T5 construct: endogenous in cells; host or cells: HeLa cell extract
T5 sequence (P09497 1-229): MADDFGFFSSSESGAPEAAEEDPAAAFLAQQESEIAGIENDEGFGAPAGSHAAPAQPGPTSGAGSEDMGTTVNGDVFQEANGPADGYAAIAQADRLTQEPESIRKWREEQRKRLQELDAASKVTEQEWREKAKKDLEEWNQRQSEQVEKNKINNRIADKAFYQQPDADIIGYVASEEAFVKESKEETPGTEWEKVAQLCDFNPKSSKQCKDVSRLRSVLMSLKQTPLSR

[6] = biological target: T6, HeLa cell extract proteins (Homo sapiens, UniProt Q99683)
T6 construct: endogenous in cells; host or cells: HeLa cell extract
T6 sequence (Q99683 1-1374): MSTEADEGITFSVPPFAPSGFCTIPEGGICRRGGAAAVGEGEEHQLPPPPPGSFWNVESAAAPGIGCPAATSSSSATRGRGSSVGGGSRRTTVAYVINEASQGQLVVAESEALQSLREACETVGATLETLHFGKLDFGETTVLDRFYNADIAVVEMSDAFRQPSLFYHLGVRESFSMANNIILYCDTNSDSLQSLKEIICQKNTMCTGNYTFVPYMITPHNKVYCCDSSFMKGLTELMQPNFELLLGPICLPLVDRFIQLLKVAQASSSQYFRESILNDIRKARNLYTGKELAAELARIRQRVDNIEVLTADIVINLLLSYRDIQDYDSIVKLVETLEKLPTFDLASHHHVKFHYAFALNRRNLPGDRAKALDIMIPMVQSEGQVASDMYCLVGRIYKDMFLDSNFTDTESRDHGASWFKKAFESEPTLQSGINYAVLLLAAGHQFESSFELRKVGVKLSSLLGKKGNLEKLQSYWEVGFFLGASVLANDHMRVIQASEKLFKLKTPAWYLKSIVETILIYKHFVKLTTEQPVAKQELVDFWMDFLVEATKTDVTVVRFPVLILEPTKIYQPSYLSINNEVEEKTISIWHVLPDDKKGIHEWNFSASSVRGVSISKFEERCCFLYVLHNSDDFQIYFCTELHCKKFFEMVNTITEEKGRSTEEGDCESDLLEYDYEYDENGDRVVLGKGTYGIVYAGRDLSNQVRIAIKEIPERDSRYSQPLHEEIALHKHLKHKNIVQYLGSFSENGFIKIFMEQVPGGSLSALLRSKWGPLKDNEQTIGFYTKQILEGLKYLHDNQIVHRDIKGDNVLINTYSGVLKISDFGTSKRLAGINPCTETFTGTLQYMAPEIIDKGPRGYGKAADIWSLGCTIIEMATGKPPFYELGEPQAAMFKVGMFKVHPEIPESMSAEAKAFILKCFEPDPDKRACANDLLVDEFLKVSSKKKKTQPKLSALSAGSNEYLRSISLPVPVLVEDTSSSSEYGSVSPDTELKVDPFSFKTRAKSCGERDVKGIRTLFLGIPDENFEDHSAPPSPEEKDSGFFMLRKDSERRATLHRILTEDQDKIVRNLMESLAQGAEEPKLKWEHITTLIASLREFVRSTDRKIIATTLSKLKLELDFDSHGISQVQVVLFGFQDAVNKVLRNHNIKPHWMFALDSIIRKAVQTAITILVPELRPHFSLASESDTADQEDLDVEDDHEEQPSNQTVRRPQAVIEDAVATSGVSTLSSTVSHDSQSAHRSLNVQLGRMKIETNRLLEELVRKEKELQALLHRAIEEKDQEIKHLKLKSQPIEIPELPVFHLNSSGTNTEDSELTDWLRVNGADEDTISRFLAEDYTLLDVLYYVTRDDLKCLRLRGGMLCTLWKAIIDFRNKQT

[7] = biological target: T7, HeLa cell extract proteins (Homo sapiens, UniProt P63244)
T7 construct: endogenous in cells; host or cells: HeLa cell extract

[8] = biological target: T8, HeLa cell extract proteins (Homo sapiens, UniProt Q8NEW0)
T8 construct: endogenous in cells; host or cells: HeLa cell extract
T8 sequence (Q8NEW0 1-376): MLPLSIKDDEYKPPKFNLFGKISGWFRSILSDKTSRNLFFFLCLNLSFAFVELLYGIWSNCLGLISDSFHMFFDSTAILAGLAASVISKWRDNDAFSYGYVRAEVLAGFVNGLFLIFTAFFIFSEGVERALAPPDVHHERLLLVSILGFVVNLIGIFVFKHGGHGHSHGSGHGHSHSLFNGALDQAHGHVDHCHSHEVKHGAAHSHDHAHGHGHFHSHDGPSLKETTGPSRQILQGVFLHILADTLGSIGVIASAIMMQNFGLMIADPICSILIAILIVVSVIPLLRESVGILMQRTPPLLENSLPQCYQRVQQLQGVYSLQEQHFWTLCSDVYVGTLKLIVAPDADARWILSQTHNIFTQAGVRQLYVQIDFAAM

[9] = biological target: T9, HeLa cell extract proteins (Homo sapiens, UniProt P23284)
T9 construct: endogenous in cells; host or cells: HeLa cell extract
T9 sequence (P23284 34-216): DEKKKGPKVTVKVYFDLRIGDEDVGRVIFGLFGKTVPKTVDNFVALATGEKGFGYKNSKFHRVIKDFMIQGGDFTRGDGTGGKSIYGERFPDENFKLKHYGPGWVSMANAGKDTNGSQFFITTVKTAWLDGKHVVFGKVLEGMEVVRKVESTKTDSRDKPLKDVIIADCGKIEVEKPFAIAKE

[10] = HeLa, protein ZC3H8 (ZINC FINGER CCCH DOMAIN-CONTAINING PROTEIN 8)
[11] = HeLa, protein MAP3K5 (MITOGEN-ACTIVATED PROTEIN KINASE KINASE KINASE 5)
[12] = HeLa, protein SLC30A7 (SOLUTE CARRIER FAMILY 30 MEMBER 7)
[13] = HeLa, protein YWHAZ (28 KDA PROTEIN.)
[14] = HeLa, protein PPIB (PEPT[…] B PRECURSOR.)

For `Nc1nc2c(c(=O)[nH]1)N(C=O)C(CNc1ccc(C(=O)N[C@@H](CCC(=O)O)C(=O)O)cc1)CN2` (stereo partly drawn) [LEU, leucovorin], the “fold changes relative to vehicle control” value [1, 10] was 1.22, the “fold changes relative to vehicle control” value ([2]; HeLa, captured protein SNRPB) was 1.16 and the “fold changes relative to vehicle control” value ([3]; HeLa, protein DDB1) was 0.95. The “fold changes relative to vehicle control” value ([4]; HeLa, protein YWHAZ) was 1.05, the “fold changes relative to vehicle control” value ([5]; HeLa, captured protein CLTB) was 0.99 and the “fold changes relative to vehicle control” value [6, 11] was 1.13. The “fold changes relative to vehicle control” value ([7]; HeLa, protein GNB2L1) was 1.08, the “fold changes relative to vehicle control” value [8, 12] was 1.06 and the “fold changes relative to vehicle control” value ([9]; HeLa, captured protein PPIB) was 1.

In the case of `Nc1nc2[nH]cc(CCc3ccc(C(=O)N[C@@H](CCC(=O)O)C(=O)O)cc3)c2c(=O)[nH]1` [PTX, pemetrexed], the “fold changes relative to vehicle control” value [1] is reported as 1.51, the “fold changes relative to vehicle control” value [2] is reported as 1.12 and the “fold changes relative to vehicle control” value [3] is reported as 0.9. The “fold changes relative to vehicle control” value [4] was 1.08, the “fold changes relative to vehicle control” value [5] was 1.2 and the “fold changes relative to vehicle control” value [6] was 1.18. For the same compound, the “fold changes relative to vehicle control” value [7] was 1.08, the “fold changes relative to vehicle control” value [8] was 0.97 and the “fold changes relative to vehicle control” value [9] was 1.11.

With `CCCCCCOc1ccc(Cc2cnc(N)nc2N)cc1` [compound 1] the “fold changes relative to vehicle control” value ([1]; protein ZC3H8, HeLa) was 1.19, the “fold changes relative to vehicle control” value ([2]; protein SNRPB, HeLa) was 1.17 and the “fold changes relative to vehicle control” value ([3]; HeLa, protein DDB1) was 0.9. The “fold changes relative to vehicle control” value [4, 13] was 1.31 fold, the “fold changes relative to vehicle control” value ([5]; HeLa, protein CLTB) was 0.82 and the “fold changes relative to vehicle control” value ([6]; HeLa, protein MAP3K5) was 1.03. For the same compound, the “fold changes relative to vehicle control” value ([7]; HeLa, protein GNB2L1) was 1.12, the “fold changes relative to vehicle control” value ([8]; HeLa, protein SLC30A7) was 1.06 and the “fold changes relative to vehicle control” value [9, 14] was 1.37 fold.

With `CCCCCCOc1cccc(Cc2cnc(N)nc2N)c1` [compound 2] the “fold changes relative to vehicle control” value ([1]; protein ZC3H8, HeLa) was 0.96, the “fold changes relative to vehicle control” value ([2]; protein SNRPB, HeLa) was 1.46 and the “fold changes relative to vehicle control” value ([3]; HeLa, protein DDB1) was 1.05. The “fold changes relative to vehicle control” value [4, 13] was 2.26 fold, the “fold changes relative to vehicle control” value ([5]; HeLa, protein CLTB) was 1.18 and the “fold changes relative to vehicle control” value ([6]; HeLa, protein MAP3K5) was 1.14. For the same compound, the “fold changes relative to vehicle control” value ([7]; HeLa, protein GNB2L1) was 1.19, the “fold changes relative to vehicle control” value ([8]; HeLa, protein SLC30A7) was 1 and the “fold changes relative to vehicle control” value [9, 14] was 2.04 fold.

With `Nc1nc2cccc(-c3ccccc3)c2n1Cc1ccc(Cl)c(Cl)c1` [compound 3] the “fold changes relative to vehicle control” value ([1]; protein ZC3H8, HeLa) was 0.99, the “fold changes relative to vehicle control” value ([2]; protein SNRPB, HeLa) was 1.04 and the “fold changes relative to vehicle control” value ([3]; HeLa, protein DDB1) was 0.87. For the same compound, the “fold changes relative to vehicle control” value [4, 13] was 0.72 fold, the “fold changes relative to vehicle control” value ([5]; HeLa, protein CLTB) was 0.94 and the “fold changes relative to vehicle control” value ([6]; HeLa, protein MAP3K5) was 1.1. For the same compound, the “fold changes relative to vehicle control” value ([7]; HeLa, protein GNB2L1) was 1.12, the “fold changes relative to vehicle control” value ([8]; HeLa, protein SLC30A7) was 1.07 and the “fold changes relative to vehicle control” value [9, 14] was 1.25 fold.

With `NCCOCCOCC(=O)Nc1nc2ncc(CNc3ccc(C(=O)NC(CCC(=O)O)C(=O)O)cc3)nc2c(=O)[nH]1` (stereo not drawn) [compound 6] the “fold changes relative to vehicle control” value [1, 10] was 1.04, the “fold changes relative to vehicle control” value ([2]; HeLa, captured protein SNRPB) was 1.16 and the “fold changes relative to vehicle control” value ([3]; HeLa, protein DDB1) was 0.99. The “fold changes relative to vehicle control” value ([4]; HeLa, protein YWHAZ) was 1.22, the “fold changes relative to vehicle control” value ([5]; HeLa, captured protein CLTB) was 1.23 and the “fold changes relative to vehicle control” value [6, 11] was 1.12. The “fold changes relative to vehicle control” value ([7]; HeLa, protein GNB2L1) was 1.12, the “fold changes relative to vehicle control” value [8, 12] was 0.94 and the “fold changes relative to vehicle control” value ([9]; HeLa, captured protein PPIB) was 1.49.

`NCCCNc1ccc(C(=O)NC(CCC(=O)O)C(=O)O)cc1` (stereo not drawn) [compound 7] was tested, and the “fold changes relative to vehicle control” value [1, 10] was 1, the “fold changes relative to vehicle control” value ([2]; HeLa, captured protein SNRPB) was 1.16 and the “fold changes relative to vehicle control” value ([3]; HeLa, protein DDB1) was 0.96. For the same compound, the “fold changes relative to vehicle control” value ([4]; HeLa, protein YWHAZ) was 0.9, the “fold changes relative to vehicle control” value ([5]; HeLa, captured protein CLTB) was 1.14 and the “fold changes relative to vehicle control” value [6, 11] was 1.09. The “fold changes relative to vehicle control” value ([7]; HeLa, protein GNB2L1) was 0.99, the “fold changes relative to vehicle control” value [8, 12] was 1 and the “fold changes relative to vehicle control” value ([9]; HeLa, captured protein PPIB) was 1.22.

— paper PMC6199744, “Development of Chemical Proteomics for the Folateome and Analysis of the Kinetoplastid Folateome” (ACS Infectious Diseases, 2018)
